This note sets out measurements from PubChem BioAssay AID330 (DTP/NCI, 2004).

SMILES strings stand for the structures. Values joined by “and” are separate entries in the source; they are usually repeats but may differ in a detail not shown here. Equal entries are not always repeated. Toxic doses and inconclusive results are not listed.

This assay relates to P388 leukemia ip, CD2F1 mice, survival T/C. Description: NCI In Vivo Anticancer Drug Screen. Data for tumor model P388 Leukemia (intraperitoneal) in CD2F1 (CDF1) mice. The following applies: endpoint: median survival time, higher = longer survival. A digest of the protocol:
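Mice carrying the transplanted tumor received test compound or vehicle. Survival was recorded in each group, and the value is the treated-group measurement divided by that of the vehicle-treated control group.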

Setting [1] is: dose: 6.25 mg/kg/injection, schedule: Q01DX009 (ip), vehicle: saline with Tween-80.
[2] abbreviates: dose: 12.5 mg/kg/injection, schedule: Q01DX009 (ip), vehicle: saline with Tween-80.
Where [3] appears, read: dose: 12.5 mg/kg/injection, schedule: Q01DX001 (ip), vehicle: Klucel (hydroxypropylcellulose) (HPC).
The mark [4] stands for this setting: dose: 25.0 mg/kg/injection, schedule: Q01DX001 (ip), vehicle: Klucel (hydroxypropylcellulose) (HPC).
Where [5] appears, read: dose: 50.0 mg/kg/injection, schedule: Q01DX001 (ip), vehicle: Klucel (hydroxypropylcellulose) (HPC).
Setting [6] is: dose: 60.0 mg/kg/injection, schedule: Q01DX005 (ip), vehicle: saline with Tween-80.
[7] abbreviates: dose: 120.0 mg/kg/injection, schedule: Q01DX005 (ip), vehicle: saline with Tween-80.
The mark [8] stands for this setting: dose: 240.0 mg/kg/injection, schedule: Q01DX005 (ip), vehicle: saline with Tween-80.
Where [9] appears, read: dose: 25.0 mg/kg/injection, schedule: Q01DX009 (ip), vehicle: saline with Tween-80.
The mark [10] stands for this setting: dose: 50.0 mg/kg/injection, schedule: Q01DX009 (ip), vehicle: saline with Tween-80.
Setting [11] is: dose: 100.0 mg/kg/injection, schedule: Q01DX009 (ip), vehicle: saline with Tween-80.
The mark [12] stands for this setting: dose: 200.0 mg/kg/injection, schedule: Q01DX009 (ip), vehicle: saline with Tween-80.

As to `C=CC[N+](CCO)(CCO)CCCCCCCCCCCCCCCCCC`, the T/C by setting is: under setting [1], 114 % of control; under setting [2], 108 % of control.

In the case of `[CH3][Sn]1([CH3])[O]C(=O)c2ccccc2C(=O)[O]1`, the T/C was 102 % of control and 111 % of control under setting [3]; 101 % of control and 102 % of control under setting [4]; 100 % of control under setting [5].

Regarding `C=Cn1c([N+](=O)[O-])cnc1/C=C/c1ccc(C(=O)OCCN(CC)CC)cc1`, the T/C was 99 % of control (dose: 100.0 mg/kg/injection, schedule: Q04DX002 (ip), vehicle: Klucel (hydroxypropylcellulose) (HPC)) and 103 % of control (dose: 200.0 mg/kg/injection, schedule: Q04DX002 (ip), vehicle: Klucel (hydroxypropylcellulose) (HPC)).

With `CNC(=O)c1cccc2c(Nc3ccc(NS(C)(=O)=O)cc3OC)c3cccc(C)c3nc12`, the T/C by setting is: (dose: 1.56 mg/kg/injection, schedule: Q01DX005 (ip), vehicle: water) 163 % of control; (dose: 3.0 mg/kg/injection, schedule: Q01DX005 (ip), vehicle: water) 175 % of control; (dose: 3.12 mg/kg/injection, schedule: Q01DX005 (ip), vehicle: water) 169 % of control; (dose: 6.25 mg/kg/injection, schedule: Q01DX005 (ip), vehicle: water) 218 % of control; (dose: 12.5 mg/kg/injection, schedule: Q01DX005 (oral), vehicle: water) 151 % of control.

Consider `CCCN1C=C(C(=O)OCC)C(N)=C(C#N)/C1=C\C=C(/C#N)C(=O)OCC`, for which the T/C was 89 % of control (dose: 6.25 mg/kg/injection, schedule: Q01DX001 (ip), vehicle: Klucel (hydroxypropylcellulose) (HPC)); 87 % of control under setting [3]; 86 % of control under setting [4]; 88 % of control under setting [5]; 90 % of control (dose: 100.0 mg/kg/injection, schedule: Q01DX001 (ip), vehicle: Klucel (hydroxypropylcellulose) (HPC)).

For the molecule `Cc1nc(N)[nH]c(=O)c1CCc1ccccc1`, the T/C is, setting by setting: (dose: 60.0 mg/kg/injection, schedule: Q01DX005 (ip), vehicle: saline) 97 % of control; (dose: 120.0 mg/kg/injection, schedule: Q01DX005 (ip), vehicle: saline) 99 % of control; (dose: 240.0 mg/kg/injection, schedule: Q01DX005 (ip), vehicle: saline) 98 % of control.

As for `Cc1ccc(-c2c([N+](=O)[O-])c3ccccn3c2[N+](=O)[O-])cc1`, the T/C reads like this: under setting [6], 92 % of control; under setting [7], 90 % of control; under setting [8], 99 % of control.

`O=C1OC(=O)C2=C1C1c3ccccc3C2c2ccccc21`: the T/C was 100 % of control (dose: 12.5 mg/kg/injection, schedule: Q01DX005 (ip), vehicle: Klucel (hydroxypropylcellulose) (HPC)); 109 % of control (dose: 25.0 mg/kg/injection, schedule: Q01DX005 (ip), vehicle: Klucel (hydroxypropylcellulose) (HPC)); 108 % of control and 110 % of control (dose: 50.0 mg/kg/injection, schedule: Q01DX005 (ip), vehicle: Klucel (hydroxypropylcellulose) (HPC)); 106 % of control (dose: 100.0 mg/kg/injection, schedule: Q01DX005 (ip), vehicle: Klucel (hydroxypropylcellulose) (HPC)).

For the molecule `CCOC(=O)c1ccc(NCc2ccc(CNc3ccc(C(=O)OCC)cc3)cc2)cc1`, the T/C reads like this: under setting [1], 105 % of control; under setting [2], 103 % of control; under setting [9], 94 % of control; under setting [10], 89 % of control; under setting [11], 89 % of control.

With `Cc1c2ccccc2c(C)c2c1ccc1ccccc12`, the T/C is, setting by setting: (dose: 3.13 mg/kg/injection, schedule: Q01DX009 (ip), vehicle: saline with Tween-80) 167 % of control; (dose: 4.0 mg/kg/injection, schedule: Q01DX009 (ip), vehicle: saline with Tween-80) 163 % of control; (dose: 6.2 mg/kg/injection, schedule: Q01DX009 (ip), vehicle: saline with Tween-80) 163 % of control; under setting [1], 180 % of control and 184 % of control; (dose: 9.3 mg/kg/injection, schedule: Q01DX009 (ip), vehicle: saline with Tween-80) 109 % of control; under setting [2], 175 % of control. For the same molecule, the T/C is, setting by setting: (dose: 12.5 mg/kg/injection, schedule: Q04DX003 (ip), vehicle: other) 104 % of control; under setting [9], 98 % of control and 100 % of control and 116 % of control; (dose: 25.0 mg/kg/injection, schedule: Q04DX003 (ip), vehicle: other) 116 % of control; under setting [10], 100 % of control; (dose: 50.0 mg/kg/injection, schedule: Q04DX003 (ip), vehicle: other) 116 % of control; (dose: 100.0 mg/kg/injection, schedule: Q04DX003 (ip), vehicle: other) 111 % of control.

For `CCOC(=O)c1ccc(N)cc1`, the T/C reads like this: (dose: 12.5 mg/kg/injection, schedule: Q01DX009 (ip), vehicle: distilled water + Tween-80) 105 % of control; (dose: 25.0 mg/kg/injection, schedule: Q01DX009 (ip), vehicle: distilled water + Tween-80) 105 % of control; (dose: 37.5 mg/kg/injection, schedule: Q01DX009 (ip), vehicle: saline with Tween-80) 100 % of control; (dose: 37.5 mg/kg/injection, schedule: Q04DX003 (ip), vehicle: saline with Tween-80) 91 % of control; (dose: 50.0 mg/kg/injection, schedule: Q01DX009 (ip), vehicle: distilled water + Tween-80) 104 % of control; (dose: 75.0 mg/kg/injection, schedule: Q01DX009 (ip), vehicle: saline with Tween-80) 109 % of control. Also, the T/C (dose: 75.0 mg/kg/injection, schedule: Q04DX003 (ip), vehicle: saline with Tween-80) is 100 % of control; the T/C (dose: 100.0 mg/kg/injection, schedule: Q01DX009 (ip), vehicle: distilled water + Tween-80) was 110 % of control; the T/C (dose: 150.0 mg/kg/injection, schedule: Q01DX009 (ip), vehicle: saline with Tween-80) was 100 % of control; the T/C (dose: 150.0 mg/kg/injection, schedule: Q04DX003 (ip), vehicle: saline with Tween-80) is 91 % of control; the T/C (dose: 200.0 mg/kg/injection, schedule: Q01DX009 (ip), vehicle: distilled water + Tween-80) is 102 % of control.

In the case of `O=C1Nc2ccccc2S/C1=C\c1cccc(C(F)(F)F)c1`, the T/C is 94 % of control under setting [10], 100 % of control under setting [11] and 105 % of control under setting [12].

With `O=S(=O)(O)c1cc(O)c2c(N=Cc3ccccc3O)c(S(=O)(=O)O)ccc2c1`, the T/C by setting is: under setting [6], 98 % of control; under setting [7], 97 % of control; under setting [8], 95 % of control.

With `ON(C=Nc1ccccc1)c1ccccc1`, the T/C by setting is: (dose: 50.0 mg/kg/injection, schedule: Q01DX009 (ip), vehicle: saline) 101 % of control; (dose: 100.0 mg/kg/injection, schedule: Q01DX009 (ip), vehicle: saline) 101 % of control; (dose: 200.0 mg/kg/injection, schedule: Q01DX009 (ip), vehicle: saline) 97 % of control.

With `N#Cc1c(NC(=O)Nc2ccc(F)cc2F)sc(=S)c2c1CCCC2`, the T/C was 100 % of control under setting [10] and 99 % of control under setting [11].

As for `Cc1ccc(S(=O)(=O)C(Cl)(SOCc2ccccc2)Sc2ccccc2)cc1` (configuration not stated), the T/C was 109 % of control (dose: 50.0 mg/kg/injection, schedule: Q01DX009 (ip), vehicle: Klucel (hydroxypropylcellulose) (HPC)); 100 % of control (dose: 100.0 mg/kg/injection, schedule: Q01DX009 (ip), vehicle: Klucel (hydroxypropylcellulose) (HPC)); 114 % of control (dose: 200.0 mg/kg/injection, schedule: Q01DX009 (ip), vehicle: Klucel (hydroxypropylcellulose) (HPC)).

On to `CC(C)(C)c1ccc(N2CSC(=S)N(c3ccc(C(C)(C)C)cc3)C2)cc1`, for which the T/C reads like this: under setting [10], 96 % of control; under setting [11], 89 % of control; under setting [12], 90 % of control.
